Data set [1] concerns colon (RKO, HCT116, DID1) and pancreatic (PA-TU-8988T) cancer cell lines. Kind of data set: Viability of adenocarcinoma cell lines. It counts as cell-based. How it is done:
(§1) Cell viability assays were performed by plating log-phase cells in RPMI complete media with 20% FBS at 1*10^5 cells/mL, with concentrations of 6-ETI or phospho-6-ETI ranging from 0.1 nM to 100 μM. ATP content at 24, 48 and 72 hours post-treatment was measured by the CellTiter-Glo kit (Promega, Madison, Wis.), or by Trypan blue assay as indicated. The LC50 for 6-ETI in each cell line was determined using online EC50 software at changbioscience.com or using GraphPad Prism to determine the LC50 for 6-ETI, phospho-6-ETI and nucleoside analogs in MM cell lines and primary MM patient samples.

The subject of data set [2] is DNA synthesis in U266 cells. Nature of the data set: Click-iT EdU DNA synthesis assay, MM cells. It counts as cell-based, human. The following applies: 24 hrs. How it is done: BC3 and U266 cells were seeded at a density of 0.5 million cells/ml and treated with DMSO only, 1 μM or 1.0 μM 6-ETI for BC3 cells and 0.5 μM 6-ETI for U266 cells for 24 hrs. At 24 hrs post 6-ETI treatment, 0.5 million cells of each of the treated conditions were labeled with 10 μM of EdU for 2 hours then fixed for 30 min using 2% paraformaldehyde supplemented with 0.3M sucrose. Cells were then washed in PBS and perineabilized with 0.2% saponin, PBS with 1% BSA and 0.3M sucrose for 20 min at room temperature. During this incubation time, a click-iT cocktail mix containing, click iT reaction buffer, CuSO4, alexafluor488 and click iT reaction buffer additive was prepared according to the manufacturer's instructions. Cells were washed in PBS after permeabilization and the click-iT cocktail mix was added for 30 min at room temperature in the absence of light. To visualize DNA, cells were counterstained with Hoechst (1:1000) for another 30 min then washed and resuspended in PBS with 1% BSA. 20 μl of the resuspended cells were combined with 20 μl of mounting media Fluoromount-G (Southern biotech) and cells were mounted on Ibidi μ-slides. Cells were imaged using DeltaVision image restoration microscope (Rockefeller center).

Data set [3] concerns BC3 (PEL). Nature of the data set: cells. The following applies: Homo sapiens; 48 hours, CellTiter-Glo; read-out: LC50 BC3 (PEL). It counts as cell-based. How it is done:
as §1

In data set [4] the test system is U266 (MM). Nature of the data set: cells. It counts as cell-based. As to conditions: Homo sapiens, U-266, 48 h, read-out: LC50 U266 (MM) in nM. How it is done: as §1
The test system of data set [5] is NF-κB activity in BC3NFRen-luc#3 cells. Kind of data set: NF-κB luciferase reporter assay. It counts as cell-based, human. The following applies: as early as 6 hours post-treatment. The source says:
Exponentially growing BC3-derived reporter cell lines (BC3NFκB-luc#6 or BC3NFRen-luc#3), and unrelated luciferase expressing U251-pGL3 cells were resuspended in respective RPMI-1640 complete media, and plated in a 96-well tissue culture microplate at 7.5*10^5 cells/mL and 3*10^5 cells/mL, respectively, in the presence or absence of varying concentrations of test compounds. […]
For orientation: A reporter such as luciferase makes a cellular process visible.

Data set [6] relates to 6-ETI-resistant BC3 clones and xenograft cell lines 2-3 low and 3-5 low. Nature of the data set: Viability assay in 6-ETI-resistant BC3-derived cell lines. It counts as cell-based. How it is done: To generate 6-ETI resistant clones, BC3 cells were plated in RPMI-1640 with 50 μg/mL Gentamicin and 20% FBS under 6-ETI selection in multiple 96-well plates at 1*10^5 cells/mL. Selection was begun at 15 nM, 30 nM, or 60 nM 6-ETI. Cells were split every three days, with the dose of 6-ETI doubled at least 1×/week. Selection continued until a few clonal populations remained, after which the clones were expanded into fresh plates under selection with 10 μM 6-ETI. Clones retrieved were designated NSCE-1, NSCE-2, NSCE-3, NSCE-4, NSCE-5, NSCE-6, NSCE-7, NSCE-8, in chronological order of selection from the original plates.
The ascites from these mice were harvested ex vivo, and following Ficoll extraction, placed in culture in RPMI-1640 with 10% FBS.

For data set [7], the system named is PA-Tu-8988T pancreatic adenocarcinoma cell line. The format is cell-based, human. How it is done: as §1
Pancreatic adenocarcinoma PA-Tu-8988T cell line was kindly provided by Lewis Cantley's lab (Weill Cornell Medicine). […] of ADK in this cell line was achieved by transducing these cells with ADK shRNA Lentiviral Particles (Santa crux) and selecting the stable cell line using 2 μg/ml Puromycin.

In data set [8] the test system is KSHV- cell lines. Kind of data set: CellTiter-Glo viability assay, KSHV- cell line panel. As to conditions: Homo sapiens, 48 h, read-out: LC50. It counts as cell-based. As for the experimental part: as §1
KSHV+ primary effusion lymphoma (PEL) cell lines (BC1, BC2, BC3, BC5, BCBL1, BCP1), EBV+ lymphoblastoid cell line LCL9001, EBI+ diffuse large B-cell lymphomas (DLBCL) with immunoblastic features (IBL1, IBL4), and EBV+ effusion DLBCL BCKN1 were cultured in RPMI-1640 medium (Invitrogen) supplemented with 50 μg/mL Gentamicin (Sigma-Aldrich) and 10% or 20% heat-inactivated fetal bovine serum, respectively. Uninfected DLBCL cell lines (Ly2, Ly7) were cultured in IMDM (Invitrogen) supplemented with 50 μg/mL Gentamicin and 10% FBS. Multiple myeloma (MM) cell lines U266 and MM1S were cultured in RPMI supplemented with 15%FBS and 50 μg/mL Gentamicin, while JJN3 was cultured in 40% IMDM/40% DMEM plus 20% FBS supplemented with 50 μg/mL Gentamicin. […]
In general terms: ATP-based viability assays read luminescence as a measure of living cells.

The structures appear in SMILES notation.

As to `CCSc1ncnc2c1ncn2[C@@H]1O[C@H](CO)C(O)[C@@H]1O` (stereo partly drawn) [Compound 6-ETI, 6-ethylthioinosine], in data set [1], the LC50 entry was “nanomolar range”. Further, the “DNA synthesis (EdU incorporation)” value in data set [2] was “suppressed DNA synthesis”. The CC50 was 49.8 nM in data set [3]; 437 nM in data set [4]; over 100000 nM in data set [6] (Homo sapiens, xenograft cell lines 2-3 low and 3-5 low after selection with 10 μM 6-ETI, read-out: LC50 (the source's name)); 10000 to 80000 nM in data set [8]. Also, the NF-κB reporter activity entry in data set [5] was “inhibited NF-κB activity”. In data set [6] (clones NSCE-1, -2, -3, -6, -7, -8), the “resistance of selected clones” value is “fully resistant”. The “change in LC50 on ADK knockdown” value in data set [7] is “a log increase in LC50”.

(Values after patent US20190225643A1, “NOVEL NUCLEOSIDE ANALOGS AND USE THEREOF IN THERAPEUTIC TREATMENT” (CORNELL UNIVERSITY, priority 2016, published 2019).)
